In patent US20250320206A1, “STAT6 DEGRADERS” (Gilead Sciences, Inc., priority 2024, published 2025):

target: T1, STAT6 (Homo sapiens, UniProt P42226); assay: Stat6 Degrader Assay (HiBiT based, HeLa LgBiT clone 4.14); type: cell-based; conditions: HeLa LgBiT clone 4.14 HiBiT-STAT6, 4-24 h incubation; values given for compounds with >80% Emax; geometric mean; read-out: STAT6 degradation DC50
T1 construct: These cells express endogenous STAT6; host or cells: HeLa LgBiT clone 4.14
T1 sequence (P42226 1-847): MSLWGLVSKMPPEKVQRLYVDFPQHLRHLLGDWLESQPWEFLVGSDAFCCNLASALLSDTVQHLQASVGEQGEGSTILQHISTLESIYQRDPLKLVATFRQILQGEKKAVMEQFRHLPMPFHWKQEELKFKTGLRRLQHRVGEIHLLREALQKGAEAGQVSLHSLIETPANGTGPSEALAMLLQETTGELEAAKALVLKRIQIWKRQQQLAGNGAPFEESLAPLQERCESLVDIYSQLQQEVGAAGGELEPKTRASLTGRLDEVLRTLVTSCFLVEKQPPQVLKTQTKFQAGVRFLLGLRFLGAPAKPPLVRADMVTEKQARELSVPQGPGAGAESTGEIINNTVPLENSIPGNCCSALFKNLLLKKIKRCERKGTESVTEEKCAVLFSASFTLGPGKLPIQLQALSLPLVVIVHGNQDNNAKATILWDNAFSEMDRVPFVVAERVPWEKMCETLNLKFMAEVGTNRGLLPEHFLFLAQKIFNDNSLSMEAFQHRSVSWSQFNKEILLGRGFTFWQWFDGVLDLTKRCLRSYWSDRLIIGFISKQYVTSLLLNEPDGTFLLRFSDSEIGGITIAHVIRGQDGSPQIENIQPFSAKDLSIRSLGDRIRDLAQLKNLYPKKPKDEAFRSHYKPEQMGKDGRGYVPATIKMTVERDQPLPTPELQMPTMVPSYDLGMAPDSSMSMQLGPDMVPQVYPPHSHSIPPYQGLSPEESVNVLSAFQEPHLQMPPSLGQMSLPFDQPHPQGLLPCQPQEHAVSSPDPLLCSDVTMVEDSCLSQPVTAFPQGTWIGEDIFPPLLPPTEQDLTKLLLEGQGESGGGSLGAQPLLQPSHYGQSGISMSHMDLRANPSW
Method: This was a HiBit based assay. A HeLa cell line stably transfected with a small protein, LgBit (Large Bit) was obtained from Promega. These cells express endogenous STAT6. A small 11 amino acid gene sequence (HiBiT) was inserted in the STAT6 gene using CRISPR technology. Once STAT6 protein is expressed in the cells, the HiBiT sequence will bind the LgBit in the cells resulting in a functional NanoBiT protein, giving a luminescent tag to STAT6, see FIG. 2.
Single cell clones were prepared and the clone 4.14 was selected for the assay based on that clone showing high luminescence, high STAT6 phosphorylation upon stimulation with IL-4, and inhibition of luminescence when cells were treated with STAT6 siRNA.
HeLa LgBiT clone 4.14 cells were suspended in DMEM with 10% FCS, 1% Pen/Strep, Na-pyrovate and Hygromycin B, at a concentration of 1.25*105 cells pr mL. 5000 cells were added pr well of a 384 well plate and 20 nL of compound was added by Echo® liquid handler. NN6394A (terfenadine, a toxic compound) was added to control wells at 50 μM concentration to establish the assay window. In these wells the cells are dead which equals 100% degradation of STAT6.
After 4-24 h of incubation at 37° C. under 5% CO2/95% air, 5 μL substrate (Nano-GLO®) was added to the wells and the plates were centrifuged and incubated for 0.5 h.
The luminescence in the wells as a measure of non-degraded STAT6 was measured in a plate reader (BMG Pherastar FSX).
The dose-response curves for Examples 3u208, 3u246, 3u118, 3u119, 3u120, and 3u74 are shown in FIG. 1 (where percent degradation is plotted vs. test compound concentration in M on a log-scale).

| Compound | DC50 [nM] |
| --- | --- |
| CNc1cc(=O)n(-c2ccnc3c2cc([C@H](C)N2CC=C(c4c(C)cc(C(=O)N(C)c5ccc(C6CCN(Cc7ccc8c(c7)C(C)(C)C(=O)N8[C@H]7CCC(=O)NC7=O)CC6)cc5)cc4F)CC2)n3C)cc1F (single isomer, unassigned) [Example 3u234] | 0.1 |
| CNc1ccn(-c2ccnc3c2cc([C@H](C)N2CC=C(c4c(C)cc(C(=O)N5CCC(CN6CCN(Cc7cc8c(cc7F)n(C7CCC(=O)NC7=O)c(=O)n8C)CC6)CC5)cc4F)CC2)n3C)c(=O)c1 (stereo partly drawn) [Example 3u10, 3-(6-fluoro-5-((4-((1-(3-fluoro-5-methyl-4-(1-((S)-1-(1-methyl-4-(4-(methylamino)-2-oxopyridin-1 (2H)-yl)-1H-pyrrolo[2,3-b]pyridin-2-yl)ethyl)-1,2,3,6-tetrahydropyridin-4-yl)benzoyl)-piperidin-4-yl)methyl)piperazin-1-yl)methyl)-3-methyl-2-oxo-2,3-dihydro-1H-benzo[d]imidazol-1-yl)piperidine-2,6-dione] | 0.6 |
| Cc1cc(C(=O)N2CCC(CN3CCN(Cc4ccc5c(c4)n(C)c(=O)n5C4CCC(=O)NC4=O)C[C@@H]3C)CC2)cc(F)c1C1=CCN(Cc2cc3c(-n4ccc5c(c4=O)CCN5)ccnc3n2C)CC1 (stereo partly drawn) [Example 3u23, 3-(5-(((S)-4-((1-(3-fluoro-5-methyl-4-(1-((1-methyl-4-(4-oxo-1,2,3,4-tetrahydro-5H-pyrrolo[3,2-c]pyridin-5-yl)-1H-pyrrolo[2,3-b]pyridin-2-yl)methyl)-1,2,3,6-tetrahydropyridin-4-yl)benzoyl)piperidin-4-yl)methyl)-3-methylpiperazin-1-yl)methyl)-3-methyl-2-oxo-2,3-dihydro-1H-benzo[d]imidazol-1-yl)piperidine-2,6-dione] | 1.3 |
| CNc1ccn(-c2ccnc3c2cc(CN2CCC(c4c(F)cc(C(=O)N5CCC(CN6CCN(Cc7ccc8c(c7)C7(CC7)C(=O)N8C7CCC(=O)NC7=O)C[C@@H]6C)CC5)cc4F)CC2)n3C)c(=O)c1F (stereo partly drawn) [Example 3u84, 3-(5′-(((S)-4-((1-(3,5-difluoro-4-(1-((4-(3-fluoro-4-(methylamino)-2-oxopyridin-1 (2H)-yl)-1-methyl-1H-pyrrolo[2,3-b]pyridin-2-yl)methyl)piperidin-4-yl)benzoyl)piperidin-4-yl)methyl)-3-methylpiperazin-1-yl)methyl)-2′-oxospiro[cyclopropane-1,3′-indolin]-1′-yl)piperidine-2,6-dione] | 26 |
| CNc1ccn(-c2ccnc3c2cc([C@H](C)N2CC=C(c4c(C)cc(C(=O)N5CCC(CN6CCN(Cc7cc8c(cc7F)n(C7CCC(=O)NC7=O)c(=O)n8C7CC7)CC6)CC5)cc4F)CC2)n3C)c(=O)c1 (stereo partly drawn) [Example 3u103, 3-(3-cyclopropyl-6-fluoro-5-((4-((1-(3-fluoro-5-methyl-4-(1-((S)-1-(1-methyl-4-(4-(methylamino)-2-oxopyridin-1 (2H)-yl)-1H-pyrrolo[2,3-b]pyridin-2-yl)ethyl)-1,2,3,6-tetrahydropyridin-4-yl)benzoyl)piperidin-4-yl)methyl)piperazin-1-yl)methyl)-2-oxo-2,3-dihydro-1H-benzo[d]imidazol-1-yl)piperidine-2,6-dione] | 2.5 |
| Cc1cc(C(=O)N2CCC(CN3CCN(Cc4cc5c(cc4F)n(C4CCC(=O)NC4=O)c(=O)n5C4CC4)C[C@@H]3C)CC2)cc(F)c1C1=CCN([C@@H](C)c2cc3c(-n4ccc5c(c4=O)CCN5)ccnc3n2C)CC1 (stereo partly drawn) [Example 3u131, 3-(3-cyclopropyl-6-fluoro-5-(((S)-4-((1-(3-fluoro-5-methyl-4-(1-((S)-1-(1-methyl-4-(4-oxo-1,2,3,4-tetrahydro-5H-pyrrolo[3,2-c]pyridin-5-yl)-1H-pyrrolo[2,3-b]pyridin-2-yl)ethyl)-1,2,3,6-tetrahydropyridin-4-yl)benzoyl)piperidin-4-yl)methyl)-3-methylpiperazin-1-yl)methyl)-2-oxo-2,3-dihydro-1H-benzo[d]imidazol-1-yl)piperidine-2,6-dione] | 0.8 |

Results, then the molecule that gave them:

| DC50 [nM] | Compound |
| --- | --- |
| 4 | CNc1c(F)cn(-c2ccnc3c2cc([C@H](C)N2CC=C(c4c(C)cc(C(=O)N5CCC(CN6CCN(Cc7ccc8c(c7)C7(CC7)C(=O)N8C7CCC(=O)NC7=O)C[C@@H]6C)CC5)cc4F)CC2)n3C)c(=O)c1F (stereo partly drawn) [Example 3u4, 3-(5′-(((S)-4-((1-(4-(1-((S)-1-(4-(3,5-difluoro-4-(methylamino)-2-oxopyridin-1 (2H)-yl)-1-methyl-1H-pyrrolo[2,3-b]pyridin-2-yl)ethyl)-1,2,3,6-tetrahydropyridin-4-yl)-3-fluoro-5-methyl-benzoyl)-piperidin-4-yl)methyl)-3-methylpiperazin-1-yl)methyl)-2′-oxospiro[cyclopropane-1,3′-indolin]-1′-yl)piperidine-2,6-dione] |
| 0.4 | CNc1cc(=O)n(-c2ccnc3c2cc([C@H](C)N2CC=C(c4c(C)cc(C(=O)N5CCC(F)(CC6CCN(c7ccc8c(c7)C7(CC7)C(=O)N8C7CCC(=O)NC7=O)CC6)CC5)cc4F)CC2)n3C)cc1F (stereo partly drawn) [Example 3u21, 3-(5′-(4-((4-fluoro-1-(3-fluoro-4-(1-((S)-1-(4-(5-fluoro-4-(methylamino)-2-oxopyridin-1 (2H)-yl)-1-methyl-1H-pyrrolo[2,3-b]pyridin-2-yl)ethyl)-1,2,3,6-tetrahydropyridin-4-yl)-5-methylbenzoyl)piperidin-4-yl)methyl)piperidin-1-yl)-2′-oxospiro[cyclopropane-1,3′-indolin]-1′-yl)-piperidine-2,6-dione] |
| 5.8 | CNc1cc(=O)n(-c2ccnc3c2cc([C@H](C)N2CC=C(c4c(C)cc(C(=O)N5CCC(CC6(O)CCN(c7ccc8c(c7)C7(CC7)C(=O)N8C7CCC(=O)NC7=O)CC6)CC5)cc4F)CC2)n3C)cc1F (stereo partly drawn) [Example 3u70, 3-(5′-(4-((1-(3-fluoro-4-(1-((S)-1-(4-(5-fluoro-4-(methylamino)-2-oxopyridin-1 (2H)-yl)-1-methyl-1H-pyrrolo[2,3-b]pyridin-2-yl)ethyl)-1,2,3,6-tetrahydropyridin-4-yl)-5-methylbenzoyl)-piperidin-4-yl)methyl)-4-hydroxypiperidin-1-yl)-2′-oxospiro[cyclopropane-1,3′-indolin]-1′-yl)-piperidine-2,6-dione] |
| 2.5 | CNc1ccn(-c2ccnc3c2cc([C@H](C)N2CC=C(c4c(C)cc(C(=O)N5CCC(CN6CCN(Cc7ccc8c(c7)C7(CCCC7)C(=O)N8C7CCC(=O)NC7=O)CC6)CC5)cc4F)CC2)n3C)c(=O)c1 (stereo partly drawn) [Example 3u110, 3-(5′-((4-((1-(3-fluoro-5-methyl-4-(1-((S)-1-(1-methyl-4-(4-(methylamino)-2-oxopyridin-1 (2H)-yl)-1H-pyrrolo[2,3-b]pyridin-2-yl)ethyl)-1,2,3,6-tetrahydropyridin-4-yl)benzoyl)piperidin-4-yl)methyl)piperazin-1-yl)methyl)-2′-oxospiro[cyclopentane-1,3′-indolin]-1′-yl)piperidine-2,6-dione] |
| 9.9 | CNc1ccn(-c2ccnc3c2cc([C@H](C)N2CC=C(c4c(C)cc(C(=O)N5CCC(CN6CCN(Cc7ccc8c(c7)C7(CC7)C(=O)N8C7CCC(=O)NC7=O)C[C@@H]6C)CC5)cc4F)CC2)n3C)c(=O)c1F (stereo partly drawn) [Example 3u114, 3-(5′-(((S)-4-((1-(3-fluoro-4-(1-((S)-1-(4-(3-fluoro-4-(methylamino)-2-oxopyridin-1 (2H)-yl)-1-methyl-1H-pyrrolo[2,3-b]pyridin-2-yl)ethyl)-1,2,3,6-tetrahydropyridin-4-yl)-5-methyl-benzoyl)piperidin-4-yl)methyl)-3-methylpiperazin-1-yl)methyl)-2′-oxospiro[cyclopropane-1,3′-indolin]-1′-yl)piperidine-2,6-dione] |
